This note sets out measurements from patent US10562882B2, “Piperidine derivatives for use in the treatment or prevention of psychiatric and neurological conditions” (Takeda Pharmaceutical Company Limited, priority 2013, dated 2020).

Chain of human PKR1 receptors (Q8TCW9 whole entry): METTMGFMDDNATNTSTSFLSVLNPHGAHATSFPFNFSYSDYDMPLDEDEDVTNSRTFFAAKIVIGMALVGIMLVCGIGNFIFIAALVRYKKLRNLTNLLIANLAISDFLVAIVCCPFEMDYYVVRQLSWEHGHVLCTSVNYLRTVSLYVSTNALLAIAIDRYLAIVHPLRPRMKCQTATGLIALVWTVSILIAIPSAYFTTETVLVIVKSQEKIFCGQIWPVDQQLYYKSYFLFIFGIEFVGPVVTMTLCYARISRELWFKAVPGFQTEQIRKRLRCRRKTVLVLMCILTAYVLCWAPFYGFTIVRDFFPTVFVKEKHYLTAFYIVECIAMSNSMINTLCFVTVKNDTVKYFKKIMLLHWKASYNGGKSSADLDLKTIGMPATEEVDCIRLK

In this test the target is human PKR1 receptors (Homo sapiens (Human), UniProt Q8TCW9). The test can be described thus: PKR1 antagonist intracellular calcium (FLIPR) assay, block of PK1-mediated calcium release. In kind it is cell-based. The note with it: RBL2H3 cells expressing human PKR1; PK1 at EC80; minimum of two independent assays. How it is done:
Prokineticin receptor 1 (PKR1) antagonists may be functionally assessed by measurement of change in intracellular calcium levels induced by Gq mediated increase in inositol triphosphate (IP3) levels. The ability of a compound to block the intracellular release of calcium mediated by PK1 in RBL2H3 cells expressing human PKR1 receptors is determined as a measure of the compound's antagonist activity in vitro.
Approximately 10,000 cells per assay well are seeded in normal culture medium in a 384 well plate (Corning). Twenty-four hours after seeding, the cells are loaded with a calcium sensitive fluorescent dye by replacing the culture medium with assay buffer (1× Hanks buffered saline, 25 mM HEPES, 0.1% w/v fatty acid free BSA (bovine serum albumin), pH 7.4) containing 1 mM probenecid and 1× Calcium 5 Reagent (Molecular Devices). Cells are incubated at 37° C. for 1 hour to allow for dye uptake.
To test for antagonist activity, test compounds at a final concentration range between 0.32 nM-10 μM (diluted in assay buffer) are added to duplicate assay wells and allowed to incubate for 10 minutes prior to stimulation with PK1. After incubation with test compounds the assay plate is placed in a FLIPR Tetra (Molecular Devices) and PK1 (diluted in assay buffer) is added at the determined EC80 concentration (final). Ligand-dependent changes in intracellular calcium levels are determined by measuring changes in fluorescence of the dye at […] following excitation at 485 nm. […] A minimum of two IC50 values determined from independent assays are generated for each compound.
(Calcium assays in cells follow changes in intracellular calcium, usually with a dye or a luminescent sensor.)
Consider `CNc1cc(C(=O)N2CCCC(c3nc4ccccc4n3C(C)C)C2)cnn1` (stereo not drawn) [Example 6, N-Methyl-5-{3-[1-(propan-2-yl)-1H-1,3-benzodiazol-2-yl]piperidine-1-carbonyl}pyridazin-3-amine], for which the 50% inhibitory concentration (IC50) is 1740 nM.

Regarding `CCn1cc(C(=O)N2CCCC(c3cc4ccccc4n3C(C)C)C2)cn1` (stereo not drawn) [Example 15, 2-{1-[(1-Ethyl-1H-pyrazol-4-yl)carbonyl]piperidin-3-yl}-1-(propan-2-yl)-1H-indole], the IC50 was 330 nM.

Consider `CCn1c(C2CCCN(C(=O)c3cnnc(NC)c3)C2)cc2ccccc21` (stereo not drawn) [Example 12, 5-[3-(1-Ethyl-1H-indol-2-yl)piperidine-1-carbonyl]-N-methylpyridazin-3-amine], for which the concentration for half-maximal inhibition (IC50) came out at 480 nM.

`CCn1cc(C(=O)N2CCCC(F)(c3ncc(Cl)cc3C)C2)cn1` (stereo not drawn) [Example 41, 5-Chloro-2-[1-(1-ethyl-1H-pyrazole-4-carbonyl)-3-fluoropiperidin-3-yl]-3-methylpyridine]: the IC50 was 2390 nM.

Regarding `CCn1c(C2CCCN(C(=O)c3cnnc(NC)c3)C2)cc2cc(C)ccc21` (stereo not drawn) [Example 19, 5-[3-(1-Ethyl-5-methyl-1H-indol-2-yl)piperidine-1-carbonyl]-N-methylpyridazin-3-amine], the IC50 turned out to be 2690 nM.

Take `CCn1c(C2CCCN(C(=O)c3cn(C)nc3N)C2)cc2cc(C)ccc21` (stereo not drawn) [Example 26, 4-[3-(1-Ethyl-5-methyl-1H-indol-2-yl)piperidine-1-carbonyl]-1-methyl-1H-pyrazol-3-amine]: the IC50 came to 3120 nM.

For the compound `CCn1c(C2CCCN(C(=O)c3ccnc(N(C)C)c3)C2)cc2ccccc21` (stereo not drawn) [Example 10, 4-[3-(1-Ethyl-1H-indol-2-yl)piperidine-1-carbonyl]-N,N-dimethylpyridin-2-amine], the half-inhibitory concentration (IC50) was 390 nM.

Regarding `CCn1cc(C(=O)N2CCCC(c3cc4cc(C)ccc4n3CC)C2)cn1` (stereo not drawn) [Example 17, 1-Ethyl-2-{1-[(1-ethyl-1H-pyrazol-4-yl)carbonyl]piperidin-3-yl}-5-methyl-1H-indole], the half-maximal inhibitory concentration (IC50) stood at 2590 nM.

Turning to `COC1(c2ncc(Cl)cc2C(F)(F)F)CCCN(C(=O)c2cnnc(N(C)C)c2)C1` (stereo not drawn) [Example 31, 5-{3-[5-Chloro-3-(trifluoromethyl)pyridin-2-yl]-3-methoxypiperidine-1-carbonyl}-N,N-dimethylpyridazin-3-amine], the IC50 amounted to 1620 nM.

Broadly, the IC50 is the concentration needed to halve the response being measured.
